Laboratory results reported in ChEMBL document CHEMBL1201862, “PubChem BioAssay data set” (2004).
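Compound exposure: 48 hours, 5 concentrations, 96-well plates. GI50 marks 50% less growth.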 The source made the active and inactive calls. Cut-off read from the data, not from the text of the source: active = GI50 up to about 1.1 µM and inactive = higher.

What was measured:
Experiment in all cases: NCI anticancer screen, dose series, 48 h
A549 = tested on: A549
RXF 393 = tested on: RXF 393
CAKI-1 = tested on: CAKI-1
DU-145 = tested on: DU-145
HOP-92 = tested on: HOP-92
NCI/ADR-RES = tested on: NCI/ADR-RES
SNB-75 = tested on: SNB-75
T47D = tested on: T47D
OVCAR-4 = tested on: OVCAR-4
PC-3 = tested on: PC-3
K562 = tested on: K562
HCT-116 = tested on: HCT-116
SN12C = tested on: SN12C
Hs-578T = tested on: Hs-578T
NCI-H23 = tested on: NCI-H23
EKVX = tested on: EKVX
SNB-19 = tested on: SNB-19
UO-31 = tested on: UO-31
786-0 = tested on: 786-0

SMILES | GI50 (A549) | GI50 (RXF 393) | GI50 (CAKI-1) | GI50 (DU-145) | GI50 (HOP-92) | GI50 (NCI/ADR-RES) | GI50 (SNB-75) | GI50 (T47D) | GI50 (OVCAR-4) | GI50 (PC-3) | GI50 (K562) | GI50 (HCT-116) | GI50 (SN12C) | GI50 (Hs-578T) | GI50 (NCI-H23) | GI50 (EKVX) | GI50 (SNB-19) | GI50 (UO-31) | GI50 (786-0)
COc1cc(/N=N/c2cccc(S(N)(=O)=O)c2)c2ccccc2c1N | 14 µM (inactive) | 15.7 µM (inactive) | 7.06 µM (inactive) | 1.9 µM (inactive) | 17.3 µM (inactive) | 22 µM (inactive) | 1.98 µM (inactive) | 13.2 µM (inactive) | 13.4 µM (inactive) | 11.5 µM (inactive) | 12.2 µM (inactive) | 14.7 µM (inactive) | 8.89 µM (inactive) | 2.67 µM (inactive) | 2.02 µM (inactive) | 13.8 µM (inactive) | 14.6 µM (inactive) | 15.3 µM (inactive) | 13.4 µM (inactive)
COC(=O)[C@]12CSC[C@H]1C[C@H](c1ccc(N(C)C)cc1)N2 | > 100 µM (inactive) | > 100 µM (inactive) | > 100 µM (inactive) | > 100 µM (inactive) | > 100 µM (inactive) | > 100 µM (inactive) | > 100 µM (inactive) | > 100 µM (inactive) | > 100 µM (inactive) | > 100 µM (inactive) | > 100 µM (inactive) | > 100 µM (inactive) | > 100 µM (inactive) | > 100 µM (inactive) | > 100 µM (inactive) | > 73.3 µM (inactive) | > 100 µM (inactive) | > 100 µM (inactive) | > 100 µM (inactive)
COC(=O)c1c2c(cc3c1CC1(Cc4ccc(C(C)=O)cc4C1)C3)CCC2 (stereo unspecified) | 33.1 µM (inactive) | 20.2 µM (inactive) | 53.3 µM (inactive) | 79.3 µM (inactive) | 93.3 µM (inactive) | 21.3 µM (inactive) | 30.4 µM (inactive) | 31.1 µM (inactive) | 41.4 µM (inactive) | 19.5 µM (inactive) | 14.9 µM (inactive) | 36.3 µM (inactive) | 19.7 µM (inactive) | 28.4 µM (inactive) | 46.5 µM (inactive) | 42.7 µM (inactive) | – | 52.4 µM (inactive) | 51.8 µM (inactive)
COc1cc2cc(C(=O)N3CC(CCl)c4c3cc(N)c3ccccc43)[nH]c2c(OC)c1OC (stereo unspecified) | < 0.01 µM (active) | < 0.01 µM (active) | < 0.01 µM (active) | < 0.01 µM (active) | < 0.01 µM (active) | < 0.01 µM (active) | < 0.01 µM (active) | < 0.01 µM (active) | < 0.01 µM (active) | < 0.01 µM (active) | < 0.01 µM (active) | < 0.01 µM (active) | < 0.01 µM (active) | < 0.01 µM (active) | < 0.01 µM (active) | < 0.01 µM (active) | < 0.01 µM (active) | < 0.01 µM (active) | < 0.01 µM (active)
C(=C/CCCN1O[C@@H](CCCCCCCCc2cccnc2)[C@H]2CCC[C@H]21)/CCCCCCCCCc1cccnc1 | 14.1 µM (inactive) | 17.1 µM (inactive) | 13.5 µM (inactive) | 32.4 µM (inactive) | 13.2 µM (inactive) | 28.1 µM (inactive) | 27.1 µM (inactive) | 20.7 µM (inactive) | 32.4 µM (inactive) | 18.8 µM (inactive) | 11.1 µM (inactive) | 16 µM (inactive) | 19.7 µM (inactive) | 37.8 µM (inactive) | 16.6 µM (inactive) | 4.48 µM (inactive) | 25.6 µM (inactive) | 19.4 µM (inactive) | 18.7 µM (inactive)
Cc1cc2ccccc2n1CC(=O)NCC(C)C | > 100 µM (inactive) | > 100 µM (inactive) | > 100 µM (inactive) | > 100 µM (inactive) | > 100 µM (inactive) | > 100 µM (inactive) | > 100 µM (inactive) | > 100 µM (inactive) | > 100 µM (inactive) | > 100 µM (inactive) | > 100 µM (inactive) | > 100 µM (inactive) | > 100 µM (inactive) | > 100 µM (inactive) | > 100 µM (inactive) | > 100 µM (inactive) | > 100 µM (inactive) | > 100 µM (inactive) | > 100 µM (inactive)
Cc1ccc(-c2nc3cc(Cl)ccc3[nH]2)cc1 | 83.4 µM (inactive) | > 100 µM (inactive) | > 100 µM (inactive) | > 100 µM (inactive) | > 100 µM (inactive) | 71.3 µM (inactive) | > 100 µM (inactive) | > 100 µM (inactive) | > 100 µM (inactive) | 79.1 µM (inactive) | 45.5 µM (inactive) | > 100 µM (inactive) | > 100 µM (inactive) | > 100 µM (inactive) | > 100 µM (inactive) | > 100 µM (inactive) | > 100 µM (inactive) | > 100 µM (inactive) | > 100 µM (inactive)
Fc1cccc(C2SCc3nc4cc5ccccc5cc4n32)c1 (stereo unspecified) | > 100 µM (inactive) | > 100 µM (inactive) | 68.9 µM (inactive) | > 100 µM (inactive) | 21 µM (inactive) | > 100 µM (inactive) | 93.1 µM (inactive) | > 100 µM (inactive) | 90.8 µM (inactive) | > 100 µM (inactive) | > 100 µM (inactive) | > 100 µM (inactive) | 53.3 µM (inactive) | > 100 µM (inactive) | > 100 µM (inactive) | > 100 µM (inactive) | > 100 µM (inactive) | > 100 µM (inactive) | 69.3 µM (inactive)
